The term melting point denotes the temperature, or range, at which the solid turns liquid.

This is an account of results in patent US6586475B1, “β-amyloid protein production/secretion inhibitors” (Takeda Chemical Industries, Ltd., priority 1998, dated 2003).

One data set is described as follows: Penetration in brain. The settings on record: in vivo.
Another data set relates to amyloid-β protein Aβ1-40. Kind of data set: Inhibition of production and/or secretion of Aβ1-40 in IMR-32 cells (EIA of supernatant). In kind it is cell-based. The settings on record: test compound 10 μM; human neuroblastoma IMR-32 cells, 24 hours; percentage relative to the control. The method, then: (§1) Compounds of the present invention were tested for an inhibitory activity of the production and/or secretion of amyloid-β protein (references: Science, 264, 1336 (1994) and Biochemistry, 34, 10272 (1995)).
(§2) Human neuroblastoma IMR-32 cells: purchased from American Type Culture Center.
(§3) Standard Aβ1-40 and Aβ1-42: purchased from Bachem Co.
(§4) IMR-32 cells were cultivated in a flask (Falcon, 750 ml) containing 10% FCS/DMEM medium, in an atmosphere of 10% CO2/90% air, at 37° C. to be in confluence. The cultured cells were seeded into a 48-well plate in a density of 2.5×10^5 cells/well, and incubated therein for 3 days under the same conditions as above. Then, the culture medium was removed through suction. […]
(§5) BAN-50 antibody or BNT-77 antibody was used as the primary antibody. […] To determined the Aβ1-42, BC-05 was used as the secondary antibody. […]
(§6) The plate was washed three times with PBS, and 100 μl of an HRP-labeled secondary antibody (BA-27 antibody or BC-o5 antibody labeled with HRP: horseradis peroxidase) as dissolved in a buffer for secondary reaction (20 mM phosphate buffer, pH 7.0; 400 mM NaCl; 2 mM EDTA; 1% BSA) was added thereto. […] Then, using a plate reader (MTP-32 Microplate Reader, by Corona Co.), the sample on the plate was subjected to calorimetric determination (at 450 nm). […]

The next data set relates to amyloid-β protein Aβ1-42. The experiment in a line: Inhibition of production and/or secretion of Aβ1-42 in IMR-32 cells (EIA of supernatant). In kind it is cell-based. The settings on record: test compound 10 μM; human neuroblastoma IMR-32 cells, 24 hours; percentage relative to the control. The protocol:
as §1, §2, §3, §4, §5, §6

As to `CCCN(CCC)CCc1ccc(OCc2ccc3ccccc3c2)cc1.Cl`, the melting point was 113 to 115 °C.
`CCCN(CCC)CCc1ccc(OCc2ccc(Cl)cc2Cl)cc1.Cl`: the melting point was in the range of 122 to 123 °C.
With `CCCN(CCC)CCc1ccc(OCc2ccc(-c3ccccc3)cc2)cc1.Cl`, the melting point was 149 to 150 °C.
Still for that read-out and setting: as for `CCCN(CCC)CCc1ccccc1OCc1ccc2ccccc2c1.Cl`, the figure is 146 to 147 °C.
Still for that read-out and setting: as for `CCCN(CCC)CCc1cccc(OCc2ccc3ccccc3c2)c1.Cl`, the figure is 115 to 116 °C; as for `CCCN(CCC)CCc1cccc(OCc2ccc(-c3ccccc3)cc2)c1.Cl`, 108 to 110 °C.
With `CCCN(CCC)CCc1cccc(OCc2ccc(Cl)cc2Cl)c1.Cl`, the melting point fell in the range of 76 to 78 °C.
On the same count and under the same terms, as for `CCCN(CCC)CCc1cccc(OCc2cccc3ccccc23)c1.Cl`, the figure is 140 to 142 °C.
Turning to `O=C(NCCN1CCCCC1)c1ccc(OCc2ccc(-c3ccccc3)cc2)cc1` [Example 8, 4-(4-Biphenylylmethoxy)-N-(2-piperidinoethyl)benzamide], in “Penetration in brain”, the penetration in brain entry is given as “excellent penetration in brain”. The “Aβ1-40 (%)” value in the data set on amyloid-β protein Aβ1-40 is on record as 39%. Further, the “Aβ1-42 (%)” value in the data set with amyloid-β protein Aβ1-42 stood at 63%.
For `O=C(NCCN1CCCCC1)c1ccc(NC(=O)c2ccc(-c3ccccc3)cc2)cc1` [Example 26, N-[4-{[2-(Piperidinoethyl)amino]carbonyl}phenyl](4-biphenylyl)carboxamide], the melting point was 247 to 252 °C (dec.).
The same measure, in the same setting: as for `O=C(NCCN1CCCC1)c1ccc(NC(=O)c2ccc(-c3ccccc3)cc2)cc1` [Example 27], the figure is 241 to 245 °C (dec.).
